Results: paper PMC8202924, “Emodepside targets SLO-1 channels of Onchocerca ochengi and induces broad anthelmintic effects in a bovine model of onchocerciasis” (PLoS Pathogens, 2021)
Read-outs that look alike come from different tables or passages of the source.

How the values were obtained:
[1] = rat, over four weeks orally in diet; cited from earlier work
From the text: Blood glucose has been identified as a simple biomarker for emodepside exposure in humans.

[2] = for Rumen contraction: over four days after treatment, from 1 contraction/min
From the text: Four non-pregnant, non-lactating cows naturally infected with O. ochengi were purchased from farmers in the Vina Division of the Adamawa Region and acclimatized at the IRAD Wakwa site for two weeks before the start of the trial. Cows were 3–6 years old and weighed 185–300 kg. They were housed in a 35 m^2 enclosure at night and fed with cotton seed cake (2 g/kg bodyweight) in the morning before grazing them on a 1 ha Brachiaria ruziziensis paddock between 9 am and 4 pm daily. Water and salt were supplied ad libitum when housed. Each cow was randomly allocated (by ear-tag number using an online research randomizer [available at https://www.randomizer.org]) to receive a single low dose of emodepside 0.15 mg/kg, a single high dose of emodepside 0.75 mg/kg, a low dose twice (emodepside 0.15 mg/kg on two consecutive days), or vehicle only (solketal). Prior to treatment, the cows were sedated with xylazine hydrochloride (Rompun). Verum or vehicle was administered IV into the jugular vein using a perfusion apparatus (Braun Perfusor Space) following an identical protocol to the Holstein pre-study described above.

[3] = test system: Onchocerca ochengi adult female worms; test: Embryogram (uterine contents of female worms from nodules); assay type: in vivo; settings: MRSM, 4 mg/kg every other day for 3 days; P = 0.005
Procedure: Tattooed nodules were removed under local anesthesia (lidocaine-epinephrine) on study days -1, 90, 180–190, 270–290, 360 and 550 in a randomized order as previously described. Nodules were trimmed of excess tissue and up to four nodules per animal were processed separately as follows: (1) stored frozen at –80°C for PK analysis (up to day 14 only); (2) injected in toto with 10% neutral-buffered formalin and stored at 4°C for histopathology (up to day 290 only); or (3) dissected immediately in phosphate-buffered saline to separate adult male and female worms. The anterior end of the female worm (which even in viable specimens is the only motile part of the parasite) was removed from the worm mass and incubated alongside intact male worms for 30 min at 37°C for visual motility assessment on a three-point scale. The remaining portion of the female worm mass was subjectively scored for fecundity on a four-point scale (0, uteri empty or worm structure degraded; 1, low; 2, intermediate; 3, normal) by examining the uterine contents microscopically in situ. This was followed by a fully quantitative embryogram to enumerate oocytes, embryonic stages and intrauterine Mf as described previously.
The same principle was applied to the analysis of the uterine contents. […] Over all doses and individual animals, an effect size (m) and corresponding statistics were calculated using R’s lm function.

[4] = test system: Onchocerca ochengi microfilariae; test: Dermal microfilarial density in naturally infected cattle; assay type: in vivo; settings: MRSM, 4 mg/kg every other day for 3 days
Procedure: By group, the geometric mean Mf load per 100 mg skin ranged from 100 to 500 (Table 1); two animals found to be negative for skin Mf were distributed in different groups. Eighteen preselected nodules per animal were marked with tattoo ink, and their positions were recorded on a hardcopy ‘hide map’ and by digital video [57]. All assessments of drug efficacy were conducted by individuals blinded to the treatment groups. The study was conducted unmasked. All study personnel provided a signed declaration to conduct the study according to the specified protocol. Verum or vehicle was administered as described in the dose confirmation study.
Worms from a second unfixed nodule (at the same timepoints listed above) were subjected to a 3-(4,5-dimethylthiazol-2-yl)-2,5-diphenyltetrazolium bromide (MTT) assay for metabolic activity, in which the insoluble formazan product was dissolved in DMSO and quantified colorimetrically at 620 nm in a microplate reader (model LT4500, Labtech, Heathfield, East Sussex, UK). Finally, dermal microfilarial densities were determined by incubation of skin biopsies (in triplicate per animal per timepoint) and normalized to 100 mg skin [59].

Row | Structure (SMILES) | no-observed-adverse-effect level [1] | Adverse effects ([2]; 0.15 mg/kg IV, over 1 h following administration) | Rumen contraction ([2]; 0.15 mg/kg IV) | Heart rate ([2]; 0.75 mg/kg IV, 6 h post treatment, increasing from 72 bpm, normal on day 4) | Blood glucose concentration ([2]; 0.75 mg/kg IV, 8 h after treatment) | Blood glucose concentration ([2]; 0.75 mg/kg IV, by 24 h (within the normal range)) | Rumen contraction ([2]; 0.75 mg/kg IV) | Temperature and respiratory rates ([2]; 0.15 and 0.75 mg/kg IV) | AUC for all embryonic stages [3] | Mf density over time [4]
1 | CC(C)C[C@H]1C(=O)O[C@H](Cc2ccc(N3CCOCC3)cc2)C(=O)N(C)[C@@H](CC(C)C)C(=O)O[C@H](C)C(=O)N(C)[C@@H](CC(C)C)C(=O)O[C@H](Cc2ccc(N3CCOCC3)cc2)C(=O)N(C)[C@@H](CC(C)C)C(=O)O[C@H](C)C(=O)N1C [emodepside] | 4 to 5 mg/kg | mild muscular tremors and salivation | 1.5 contractions/min | 80 bpm | 158 to 200 mg/dL | 61 mg/dL | 2 contractions/min | not affected | – | –
2 | NCCS[As](SCCN)c1ccc(Nc2nc(N)nc(N)n2)cc1 [melarsomine] | – | – | – | – | – | – | – | – | significantly reduced | complete clearance after one year
